# Experimental data taken from PubChem BioAssay AID278 (DTP/NCI, 2004).
# Results filed as inconclusive are left out.
# System: nude mice, A549 intrarenal xenograft, tumor weight change
# Experiment: NCI In Vivo Anticancer Drug Screen. Data for tumor model A549 Human Adenocarcinoma of Lung with characteristics of Type II Alveolar Epithelial cells (intrarenal inoculation) in NU/NU BALB/C (nude) mice
# Conditions: endpoint: mean tumor weight change, schedule: Q04DX003 (ip), higher = larger tumour
# Procedure, shortened: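 Activity is expressed as T/C: the treated-group value over the vehicle-treated control value. The measure was survival or tumor size in mice carrying transplantable tumors.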
structure (smiles),measurement,setting,value
O=C(Nc1cc(Cl)ccc1C(=O)O)c1cccc(C[n+]2ccccc2)c1,T/C,"dose: 150.0 mg/kg/injection, vehicle: saline with Tween-80",161 % of control
same,T/C,"dose: 300.0 mg/kg/injection, vehicle: saline with Tween-80",86 % of control
same,T/C,"dose: 600.0 mg/kg/injection, vehicle: saline with Tween-80",20 % of control
S=C1CCCCN1,T/C,"dose: 75.0 mg/kg/injection, vehicle: distilled water + Tween-80 + alcohol",86 % of control
same,T/C,"dose: 150.0 mg/kg/injection, vehicle: distilled water + Tween-80 + alcohol",69 % of control
Cc1cccc(OCC(O)CN2CC2)c1 (stereo not given),T/C,"dose: 50.0 mg/kg/injection, vehicle: saline with Tween-80",82 % of control
same,T/C,"dose: 100.0 mg/kg/injection, vehicle: saline with Tween-80",46 % of control
same,T/C,"dose: 200.0 mg/kg/injection, vehicle: saline with Tween-80",81 % of control
CN(C)c1ccc2c(SCC(=O)OCC(=O)[C@@]3(O)CC[C@H]4[C@@H]5CCC6=CC(=O)C=C[C@]6(C)[C@H]5C(=O)C[C@@]43C)c3ccc(N(C)C)cc3nc2c1,T/C,"dose: 75.0 mg/kg/injection, vehicle: Klucel (hydroxypropylcellulose) (HPC)",52 % of control
same,T/C,"dose: 150.0 mg/kg/injection, vehicle: Klucel (hydroxypropylcellulose) (HPC)",62 % of control
same,T/C,"dose: 300.0 mg/kg/injection, vehicle: Klucel (hydroxypropylcellulose) (HPC)",96 % of control
CNC(=O)/C=C/C1=CN2C(=O)c3ccc(C)c(O)c3NC(OC)C2C1 (stereo not given),T/C,"dose: 100.0 micrograms/kg/injection, vehicle: saline",1 % of control
same,T/C,"dose: 200.0 micrograms/kg/injection, vehicle: saline",20 % of control
same,T/C,"dose: 400.0 micrograms/kg/injection, vehicle: saline",29 % of control
same,T/C,"dose: 800.0 micrograms/kg/injection, vehicle: saline",-17 % of control
